# Results reported in US20040067547A1, “Rapid method for detecting micro-organisms and evaluating antimicrobial activity” (priority 1998, published 2004).
# System: Streptococcus pneumoniae
# Assay: Antibiotic sensitivity testing by zeta potential measurement (ZETASIZER 2000)
# Assay type: cell-based
# Conditions: about 10^5 cells in growth medium with penicillin at 0.01 g/ml, incubated at 37° C. for 3 h; about 0 mV = dead cells, untreated −27.9 mV
# Protocol: The following Example illustrates a particular embodiment of the invention: Streptococcus pneumoniae was grown for about 4 h in laked horse blood medium. Aliqouts, representing about 10^5 cells, were transferred to two tubes containing growth medium: one of these also contained penicillin at 0.01 g/ml. The zeta potential of both samples was measured using a ZETASIZER 2000 (RTM) from Malvern Instruments. The tubes were incubated at 37° C. for 3 h, and the zeta potential of each measured again. […] There is a clear difference in these profiles. In both Figures, the peak at 0 mV represents dead cells. The zeta potential of all dead micro-organisms is close to 0 mV: without wishing to be bound by a particular theory, it is believed that these changes are brought about by the vacuolation of the cells, resulting in the zeta potential decaying to about 0 mv. The other peak in FIG. 4 is believed also to be cells of S pneumoniae, but which are […].
substance,measurement,value
penicillin,Mean Zeta Potential for S pneumoniae,−0.3 mV
